{"source": "patent US11285130B2", "about": "“Treatment of mitochondrial diseases” (Khondrion IP B.V., priority 2017, dated 2022)", "key": {"[1]": {"conditions": "male, human, in vivo, 28 days"}, "[2]": {"conditions": "male, human, in vivo, 7 days"}, "[3]": {"conditions": "male, human, in vivo", "description": "The changes from baseline (pre-dose assessment on Day 1) for body weight, physical examinations, vital signs, ECG-variables and clinical laboratory variables were determined for each time point. Treatment-emergent laboratory and ECG abnormalities as well as adverse events were monitored throughout the study, up to 28 Days after the last study drug intake.\nThe goal of this post-hoc optimization study was to repeat the ECG assessment with an highly automated computer-assisted approach where in addition to the re-evaluation of standard intervals (PR, QRS and QT intervals), a set of parameters describing repolarization morphology were considered. The morphology indices were the TpTe interval (interval from the T wave apex to the end of the T wave), the TpTe/QT index (the ratio between the TpTe interval and the QT interval), Tamp (the amplitude in microvolt units of the T wave) and TSym (an index of repolarization morphology based on the symmetry of the T wave).\nECGs were digitally recorded using a Schiller AT104 ECG machine (500 Hz, 1 μV). Cardiac interval measurements were performed on the Global Superimposed Median Beat (GSMB), a methodology that allows measurements that consider each of the 12 individual median beats. This measurement methodology ensures that the PR, QRS, and QT interval are measured from the earliest onset in any lead to the latest deflection in any lead. Cardiologist overview of the computer-based measurements is based on the superimposed (overlapped) display of the individual median beats, to assure measurements are performed at the earliest onset of any viable lead to the latest offset of any viable lead.\nThe RR interval used for heart-rate correction of the QT interval (QTcB) was based on all the beats in the ten second recording. […]\nFor the pre-dose (baseline) ECGs, all parameters per time point were calculated as the averages of the triplicate ECGs. […]\nThe over-reading cardiologist provided a clinical interpretation for each ECG at each time point. […]"}}, "note": "Read-outs that look alike come from different tables or passages of the source."}
{"smiles": "Cc1c(C)c2c(c(C)c1O)CC[C@@](C)(C(=O)N[C@@H]1CCCNC1)O2.Cl", "note": "[KH176, (S)-6-hydroxy-2,5,7,8-tetramethyl-N-((R)-piperidin-3-yl)chroman-2-carboxamide hydrochloride]", "values": [{"measurement": "AEs rated mild in severity", "setting": "[1]", "value": 35}, {"measurement": "AEs reported by subjects in the highest dose group", "setting": "[1]", "value": 28}, {"measurement": "moderate AEs", "setting": "[1]", "value": 6}, {"measurement": "severe AEs", "setting": "[1]", "value": 2}, {"measurement": "subjects reporting AEs", "setting": "[1]", "value": 14, "unit": "subjects"}, {"measurement": "total adverse events (AEs) reported", "setting": "[1]", "value": 43}, {"measurement": "AEs rated mild in severity", "setting": "[2]", "value": 27}, {"measurement": "moderate AEs", "setting": "[2]", "value": 2}, {"measurement": "subjects reporting AEs", "setting": "[2]", "value": 10, "unit": "subjects"}, {"measurement": "KH176 exposure with no significant prolongation of the TpTe interval compared to placebo", "setting": "[3]", "value": "lower than 500 ng/ml"}, {"measurement": "plasma concentrations at which effects on repolarization seem to start", "setting": "[3]", "value": "500 to 1000", "unit": "ng/mL"}, {"measurement": "QTcF, largest median baseline increase", "setting": "[3]; 1 h", "value": 46.8, "unit": "ms"}]}
